# Values quoted from earlier work in patent US20150297607A1, “Tricyclic Lactams for Use in the Protection of Normal Cells During Chemotherapy” (G1 Therapeutics, Inc., priority 2014, published 2015).
# Conditions: clinical trial; Grade 3/4 neutropenia and leukopenia
smiles,measurement,value
"CC(=O)c1c(C)c2cnc(Nc3ccc(N4CCNCC4)cn3)nc2n(C2CCCC2)c1=O [PD0332991, 6-acetyl-8-cyclopentyl-5-methyl-2-(5-piperazin-1-yl-pyridin-2-ylammino)-8H-pyrido-[2,3-d]-pyrimidin-7-one]",patients requiring a dose interruption,71%
same,patients requiring a dose reduction,35%
